In brackets after ≈: the same amount, converted by molar mass.

Series [1] in a line: Solubility in Example 7 formulation (hydrogel in 50:50 wt % water/ethanol). It counts as physicochemical. Conditions: 50:50 wt % water/ethanol with polyvinylalcohol and butylidene polymer; for solubility: aqueous with cosolvent or surfactant or cyclodextrin. An excerpt:
As an alternative to the general procedure described in Example 2 and the procedures described in other examples, a solvent may comprise a 50:50 wt % water/ethanol solution. The polyvinylalcohol and butylidene polymer may be included in such a solvent and the mixture may then be acidified to a pH of not less than 2.5 to cause polyvinylalcohol and butylidene polymer to react in an acid catalysed reaction. A drug of low solubility may then be added to the mixture as described in the other examples.
(§1) J. Pharm 302(2005), 18-28 and S. I. F. Badaway et al, Int. J. Pharmaceut.128(1996), 45-54.

A short description of series [2]: Solubility in 10% w/v hydroxypropyl cyclodextrin solution. The series is classed as physicochemical. The following applies: for solubility: 10% w/v hydroxypropyl cyclodextrin solution, aqueous with cosolvent or surfactant or cyclodextrin, read-out: Solubility in 10% w/v Hydroxypropyl Cyclodextrin soln.
Description: as §1

The nature of series [3]: Intrinsic solubility of drug. It counts as physicochemical.
Description: as §1

The nature of series [4]: Time for solid drug to dissolve in acidified hydrogel mixture at ambient temperature with stirring. The series is classed as physicochemical. The following applies: 0.2 wt % drug in 0.5 wt % hydrogel, pH about 2.5, ambient temperature. As to the method: A 0.5 wt % formulation of a hydrogel was prepared comprising Poval 220 polyvinylalcohol and the butylidene polymer of Example 1 in the weight ratio 10:1. The pH of the mixture was lowered to about 2.5 by addition of hydrochloric acid and, with the pH at the lowered level, doxorubicin, a solid red powder, was added at ambient temperature with stirring to give a level of 0.2 wt % doxorubicin in the mixture. […] After the formulation has been prepared, the pH may be raised to about 7 by addition of alkali to neutralise it.
A 2 wt % formulation of a hydrogel was prepared comprising KH-20 polyvinylalcohol and the butylidene polymer of Example 1 in a weight ratio 10:1. The pH of the mixture was lowered to about 2.5, by addition of hydrochloric acid. Then, doxycycline, in a solid form, was added at ambient temperature with stirring to give a level of 0.5 wt % of doxycycline in the mixture. The doxycycline appeared to dissolve in the water within about 15 minutes to give a clear pale yellow mixture which appeared to comprise a solution but more likely comprises complexed doxycycline.

For series [5] the following is noted: aqueous formulation, Poval 220 polyvinylalcohol/butylidene polymer hydrogel (Example 3 process).
Series [6] in a line: physchem. The following applies: pH 2.5, aqueous with cosolvent or surfactant or cyclodextrin, thermodynamic from solid.

For `Clc1ccccc1C(c1ccccc1)(c1ccccc1)n1ccnc1` [Clotrimazole], the solubility in series [1] was 11.8 mg/mL (≈ 34.2 mM); in series [2] it was 1210 µg/mL (≈ 3.51 mM). Further, in series [3], the “Intrinsic Solubility” value came to 0.07 mg/mL.
`Clc1ccc(COC(Cn2ccnc2)c2ccc(Cl)cc2Cl)cc1` (stereo not drawn) [Econazole]: the solubility in series [1] stood at 12.6 mg/mL (≈ 33 mM); in series [2], 4990 µg/mL (≈ 13.1 mM); in series [3] it was 370 µg/mL (≈ 0.969 mM).
On the same counts, the results for `Clc1ccc(COC(Cn2ccnc2)c2ccc(Cl)cc2Cl)c(Cl)c1` (stereo not drawn) [Miconazole] are 4.7 mg/mL (≈ 11.3 mM), 2460 µg/mL (≈ 5.91 mM) and 90 µg/mL (≈ 0.216 mM).
In the case of `CC(C)c1cccc(C(C)C)c1O` [Propafol], the “Example 7 formulation (solubility)” value in series [1] stood at 34.8 mg/mL. For the same molecule, in series [2], the “Solubility in 10% w/v Hydroxypropyl Cyclodextrin soln.” value was 7.69 mg/mL (≈ 43.1 mM). Besides, the “Intrinsic Solubility” value in series [3] turned out to be 0.16 mg/mL.
Regarding `COc1cccc2c1C(=O)c1c(O)c3c(c(O)c1C2=O)C[C@@](O)(C(=O)CO)C[C@@H]3O[C@H]1C[C@H](N)[C@H](O)[C@H](C)O1` [doxorubicin], the “appeared to dissolve in the water (time)” value in series [4] is reported as “substantially instantaneously”. The molecule also yielded a saturation solubility in series [5] of 11.5 % w/v. The molecule also came in with a solubility in series [6] of 115 mg/mL (≈ 212 mM).
